In patent publication US20050215435A1, “Phenylalanine derivatives as herbicides” (priority 2002, published 2005):

Legend:
Experiment in all cases: Greenhouse herbicidal action, post-emergence
Format in all cases: in vivo
[1] = test system: Sinapis alba
Source text: (§1) The seeds of the test plants were sown separately for each species. For the post-emergence treatment, the test plants were first grown to a height of from 3 to 15 cm, depending on the plant habit, and only then treated with the active compounds which had been suspended or emulsified in water. The test plants were for this purpose either sown directly and grown in the same containers, or they were first grown separately as seedlings and transplanted into the test containers a few days prior to treatment. […] (active substance). Depending on the species, the plants were kept at 10-25° C. or 20-35° C. The test period extended over from 2 to 4 weeks. During this time, the plants were tended, and their response to the individual treatments was evaluated. Evaluation was carried out using a scale from 0 to 100. 100 means no emergence of the plants, or complete destruction of at least the aerial parts and 0 means no damage, or normal course of growth. The plants used in the greenhouse experiments were of the following species: [table]

[2] = test system: Setaria italica
Source text: as §1

[3] = test system: Abutilon theophrasti
Source text: as §1

[4] = test system: Chenopodium album; details: 1.0 kg of a.s./ha
Source text: as §1

Compound: CNC(=O)C(NC(=O)c1ccccc1C(F)(F)F)C(C)c1ccccc1F (single isomer, unassigned) [Compound I-32]
- control of Sinapis alba ([1]; 0.095 kg of a.s./ha): very good control
- control of Setaria italica ([2]; 0.095 kg of a.s./ha): very good control

Compound: CNC(=O)[C@H](Cc1ccccc1C)NC(=O)c1ccccc1C(F)(F)F [Compound I-19]
- control of Abutilon theophrasti ([3]; 0.5 kg of a.s./ha): very good control
- control of Setaria italica ([2]; 0.5 kg of a.s./ha): very good control

Compound: CNC(=O)[C@H](Cc1cccc(F)c1)NC(=O)c1cccc(F)c1C(F)(F)F [Compound I-24]
- control of Sinapis alba ([1]; 0.5 kg of a.s./ha): very good control
- control of Abutilon theophrasti ([3]; 0.5 kg of a.s./ha): very good control

Compound: CNC(=O)[C@H](Cc1cccc(F)c1)NC(=O)c1cc(F)ccc1C(F)(F)F [Compound I-25]
- control of Sinapis alba ([1]; 0.5 kg of a.s./ha): very good control
- control of Abutilon theophrasti ([3]; 0.5 kg of a.s./ha): very good control
- control of Setaria italica ([2]; 0.5 kg of a.s./ha): very good control

Compound: CNC(=O)[C@H](Cc1ccccc1C)NC(=O)c1ccc(Cl)c(C(F)F)c1Cl [Compound I-49]
- control of Sinapis alba ([1]; 1.91 kg of a.s./ha): very good control
- control of Sinapis alba ([1]; 3.0 kg of a.s./ha): very good control
- control of Abutilon theophrasti ([3]; 1.91 kg of a.s./ha): very good control
- control of Abutilon theophrasti ([3]; 3.0 kg of a.s./ha): very good control
- control of Setaria italica ([2]; 1.91 kg of a.s./ha): very good control
- control of Setaria italica ([2]; 3.0 kg of a.s./ha): very good control

Compound: CNC(=O)[C@H](Cc1ccccc1C)NC(=O)c1ccc(F)cc1C(F)(F)F [Compound I-51]
- control of Chenopodium album [4]: very good control
- control of Abutilon theophrasti ([3]; 1.0 kg of a.s./ha): very good control

Compound: CNC(=O)[C@H](Cc1ccccc1C)NC(=O)c1cccc(F)c1C(F)(F)F [Compound I-53]
- control of Sinapis alba ([1]; 0.5 kg of a.s./ha): very good control
- control of Abutilon theophrasti ([3]; 0.5 kg of a.s./ha): very good control
- control of Setaria italica ([2]; 0.5 kg of a.s./ha): very good control

Compound: CNC(=O)C(NC(=O)c1ccc(F)cc1C(F)(F)F)C(C)c1ccccc1F (stereo not drawn) [II-7]
- control of Chenopodium album [4]: very good control
- control of Abutilon theophrasti ([3]; 1.0 kg of a.s./ha): very good control

Compound: CNC(=O)C(Cc1ccccc1)NC(=O)c1ccc(F)cc1C(F)(F)F (stereo not drawn) [II-91]
- control of Sinapis alba ([1]; 2.0 kg of a.s./ha): very good control
- control of Abutilon theophrasti ([3]; 2.0 kg of a.s./ha): very good control

Compound: CNC(=O)C(Cc1ccccc1C)NC(=O)c1ccccc1S(C)(=O)=O (stereo not drawn) [II-111]
- control of Sinapis alba ([1]; 1.0 kg of a.s./ha): very good control
- control of Abutilon theophrasti ([3]; 1.0 kg of a.s./ha): very good control
- control of Setaria italica ([2]; 1.0 kg of a.s./ha): very good control

Compound: Nα-(2-trifluoromethyl-4-fluorobenzoyl)-2-(1-methyl-1-(2-fluorophenyl))glycine-N-methylamide [II-15]
- control of Sinapis alba ([1]; 0.5 kg of a.s./ha): very good control
- control of Abutilon theophrasti ([3]; 0.5 kg of a.s./ha): very good control
- control of Setaria italica ([2]; 0.5 kg of a.s./ha): very good control
